Reference: patent US12552783B2, “Modulators of proteolysis and associated methods of use” (Arvinas Operations, Inc., priority 2018, dated 2026)

Molecular target: KRas (Homo sapiens, UniProt P01116, G12C)
Assay: KRas degradation in NCI-H2030 cells by Western blot, normalized to GAPDH (data of Table 14)
Format: cell-based
Parameters: host or cells: NCI-H2030
Conditions: for Dmax: NCI-H2030
Procedure, shortened: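 Readout: GAPDH-normalized KRas immunoblot signal, expressed as percent degradation versus 0.1% DMSO vehicle. Treatment: 0.3, 1, 3 μM after 24 h starvation; 24 h (VHL-based) or 72 h (others).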

Compound: CN[C@@H](C)C(=O)N[C@H](C(=O)N1CCC[C@H]1c1nc(-c2ccc(OCCOCCOCCOCCOCCN(C)C(=O)CCNc3nc(N4CCN(C(C)=O)CC4)c4cc(Cl)c(-c5cc(O)cc6ccccc56)c(F)c4n3)c3ccccc23)cs1)C1CCCCC1 [compound 269, 3-((4-(4-acetylpiperazin-1-yl)-6-chloro-8-fluoro-7-(3-hydroxynaphthalen-1-yl)quinazolin-2-yl)amino)-N-(14-((4-(2-((S)-1-((S)-2-cyclohexyl-2-((S)-2-(methylamino)propan-amido)acetyl)pyrrolidin-2-yl)thiazol-4-yl)naphthalen-1-yl)oxy)-3,6,9,12-tetraoxatetradecyl)-N-methylpropanamide]
- Percent Degradation at Indicated Concentration (μM) (H2030, 0.3 μM): C (Percent Degradation: C ≤ 35)
- Percent Degradation at Indicated Concentration (μM) (H2030, 1 μM): C (Percent Degradation: C ≤ 35)
- Percent Degradation at Indicated Concentration (μM) (H2030, 3 μM): C (Percent Degradation: C ≤ 35)
- Dmax: ≤ 35%

Compound: C=CC(=O)N1CCN(c2nc(NCCC(=O)N(C)CCOCCOCCOc3cc(-c4scnc4C)ccc3CNC(=O)[C@@H]3C[C@@H](O)CN3C(=O)[C@H](c3cc(C)no3)C(C)C)nc3c(F)c(-c4c(O)cccc4F)c(Cl)cc23)CC1 (atropisomer, axis not shown) [compound 130, (25,4R)-N-(2-(2-(2-(2-(3-(((S)-4-(4-acryloylpiperazin-1-yl)-6-chloro-8-fluoro-7-(2-fluoro-6-hydroxyphenyl)quinazolin-2-yl)amino)-N-methylpropanamido)ethoxy)ethoxy)ethoxy)-4-(4-methylthiazol-5-yl)benzyl)-4-hydroxy-1-((S)-3-methyl-2-(3-methylisoxazol-5-yl)butanoyl)pyrrolidine-2-carboxamide]
- Percent Degradation at Indicated Concentration (μM) (H2030, 0.3 μM): C (Percent Degradation: C ≤ 35)
- Percent Degradation at Indicated Concentration (μM) (H2030, 1 μM): C (Percent Degradation: C ≤ 35)
- Percent Degradation at Indicated Concentration (μM) (H2030, 3 μM): C (Percent Degradation: C ≤ 35)
- Dmax: ≤ 35%

Compound: CN(CCOCCOc1ccc2c(c1)C(=O)N(C1CCC(=O)NC1=O)C2=O)C(=O)CCNc1nc(N2CCN(C(=O)C(O)O)CC2)c2cc(Cl)c(-c3c(O)cccc3F)c(F)c2n1 [compound 149, 3-(((S)-6-chloro-4-(4-(2,2-dihydroxyacetyl)piperazin-1-yl)-8-fluoro-7-(2-fluoro-6-hydroxyphenyl)quinazolin-2-yl)amino)-N-(2-(2-((2-(2,6-dioxopiperidin-3-yl)-1,3-dioxoisoindolin-5-yl)oxy)ethoxy)ethyl)-N-methylpropanamide]
- Percent Degradation at Indicated Concentration (μM) (H2030 cells, 3 μM): C (Percent Degradation: C ≤ 35)

Compound: C=CC(=O)N1CCN(c2nc(NCCC(=O)N(C)CCOCCOCCOc3cc(-c4scnc4C)ccc3CNC(=O)[C@@H]3C[C@@H](O)CN3C(=O)[C@@H](c3cc(C)no3)C(C)C)nc3c(F)c(-c4cc(O)cc5ccccc45)c(Cl)cc23)CC1 [compound 341, (2S,4R)-N-(2-(2-(2-(2-(3-((4-(4-acryloylpiperazin-1-yl)-6-chloro-8-fluoro-7-(3-hydroxynaphthalen-1-yl)quinazolin-2-yl)amino)-N-methylpropanamido)ethoxy)ethoxy)ethoxy)-4-(4-methylthiazol-5-yl)benzyl)-4-hydroxy-1-((R)-3-methyl-2-(3-methylisoxazol-5-yl)butanoyl)pyrrolidine-2-carboxamide]
- Percent Degradation at Indicated Concentration (μM) (H2030, 0.3 μM): C (Percent Degradation: C ≤ 35)
- Percent Degradation at Indicated Concentration (μM) (H2030, 1 μM): C (Percent Degradation: C ≤ 35)
- Percent Degradation at Indicated Concentration (μM) (H2030, 3 μM): C (Percent Degradation: C ≤ 35)
- Dmax: ≤ 35%

Compound: C=CC(=O)N1CCN(c2nc(NCCC(=O)N(C)CCOCCOc3ccc(-c4csc([C@@H]5CCCN5C(=O)[C@@H](NC(=O)[C@H](C)NC)C5CCCCC5)n4)c4ccccc34)nc3c(F)c(-c4cc(O)cc5ccccc45)c(Cl)cc23)CC1 [compound 271, 3-((4-(4-acryloylpiperazin-1-yl)-6-chloro-8-fluoro-7-(3-hydroxynaphthalen-1-yl)quinazolin-2-yl)amino)-N-(2-(2-((4-(2-((S)-1-((S)-2-cyclohexyl-2-((S)-2-(methylamino)propan-amido)acetyl)pyrrolidin-2-yl)thiazol-4-yl)naphthalen-1-yl)oxy)ethoxy)ethyl)-N-methylpropanamide]
- Percent Degradation at Indicated Concentration (μM) (H2030, 0.3 μM): C (Percent Degradation: C ≤ 35)
- Percent Degradation at Indicated Concentration (μM) (H2030, 1 μM): C (Percent Degradation: C ≤ 35)
- Percent Degradation at Indicated Concentration (μM) (H2030, 3 μM): C (Percent Degradation: C ≤ 35)
- Dmax: ≤ 35%

Compound: C=CC(=O)N1CCN(c2nc(NCCC(=O)N(C)CCOCCOCCOCCNC(=O)c3ccc(NC(=O)[C@@H]4N[C@@H](CC(C)(C)C)[C@](C#N)(c5ccc(Cl)cc5F)[C@H]4c4cccc(Cl)c4F)c(OC)c3)nc3c(F)c(-c4c(O)cccc4F)c(Cl)cc23)CC1 (atropisomer, axis not shown) [compound 311, (2R,3S,4R,5S)-N-(4-((15-((4-(4-acryloylpiperazin-1-yl)-6-chloro-8-fluoro-7-((S)-2-fluoro-6-hydroxyphenyl)quinazolin-2-yl)amino)-12-methyl-13-oxo-3,6,9-trioxa-12-azapentadecyl)carbamoyl)-2-methoxyphenyl)-3-(3-chloro-2-fluorophenyl)-4-(4-chloro-2-fluorophenyl)-4-cyano-5-neopentylpyrrolidine-2-carboxamide]
- Percent Degradation at Indicated Concentration (μM) (H2030, 0.3 μM): C (Percent Degradation: C ≤ 35)
- Percent Degradation at Indicated Concentration (μM) (H2030, 1 μM): C (Percent Degradation: C ≤ 35)
- Percent Degradation at Indicated Concentration (μM) (H2030, 3 μM): C (Percent Degradation: C ≤ 35)
- Dmax: ≤ 35%

Compound: C=CC(=O)N1CCN(c2nc(NCCC(=O)N(C)CCOCC(=O)N[C@H](C(=O)N3C[C@H](O)C[C@H]3C(=O)N[C@@H](C)c3ccc(-c4scnc4C)cc3)C(C)(C)C)nc3c(F)c(-c4c(O)cccc4F)c(Cl)cc23)CC1 (atropisomer, axis not shown) [compound 205, (2S,4R)-1-((S)-2-(2-(2-(3-(((S)-4-(4-acryloylpiperazin-1-yl)-6-chloro-8-fluoro-7-(2-fluoro-6-hydroxyphenyl)quinazolin-2-yl)amino)-N-methylpropanamido)ethoxy)acetamido)-3,3-dimethylbutanoyl)-4-hydroxy-N-((S)-1-(4-(4-methylthiazol-5-yl)phenyl)ethyl)pyrrolidine-2-carboxamide]
- Percent Degradation at Indicated Concentration (μM) (H2030, 3 μM): C (Percent Degradation: C ≤ 35)

Compound: C=CC(=O)N1CCN(c2nc(NCCC(=O)N(C)CCOCCOCCOCCOCCOc3ccc4c(c3)C(=O)N(C3CCC(=O)NC3=O)C4=O)nc3c(F)c(-c4c(O)cccc4F)c(Cl)cc23)CC1 [compound 75, 3-(((S)-4-(4-acryloylpiperazin-1-yl)-6-chloro-8-fluoro-7-(2-fluoro-6-hydroxyphenyl)quinazolin-2-yl)amino)-N-(14-((2-(2,6-dioxopiperidin-3-yl)-1,3-dioxoisoindolin-5-yl)oxy)-3,6,9,12-tetraoxatetradecyl)-N-methylpropanamide]
- Percent Degradation at Indicated Concentration (μM) (H2030, 0.3 μM): C (Percent Degradation: C ≤ 35)
- Percent Degradation at Indicated Concentration (μM) (H2030, 1 μM): C (Percent Degradation: C ≤ 35)
- Percent Degradation at Indicated Concentration (μM) (H2030, 3 μM): C (Percent Degradation: C ≤ 35)
- Dmax: ≤ 35%

Compound: C=CC(=O)N1CCN(c2nc(NCCC(=O)N(C)CCOCCOCC(=O)N[C@H](C(=O)N3C[C@H](O)C[C@H]3C(=O)N[C@@H](C)c3ccc(-c4scnc4C)cc3)C(C)(C)C)nc3c(F)c(-c4c(O)cccc4F)c(Cl)cc23)CC1 (atropisomer, axis not shown) [compound 208, (2S,4R)-1-((S)-15-(((R)-4-(4-acryloylpiperazin-1-yl)-6-chloro-8-fluoro-7-(2-fluoro-6-hydroxyphenyl)quinazolin-2-yl)amino)-2-(tert-butyl)-12-methyl-4,13-dioxo-6,9-dioxa-3,12-diazapentadecanoyl)-4-hydroxy-N-((S)-1-(4-(4-methylthiazol-5-yl)phenyl)ethyl)pyrrolidine-2-carboxamide]
- Percent Degradation at Indicated Concentration (μM) (H2030, 0.3 μM): C (Percent Degradation: C ≤ 35)
- Percent Degradation at Indicated Concentration (μM) (H2030, 1 μM): C (Percent Degradation: C ≤ 35)
- Percent Degradation at Indicated Concentration (μM) (H2030, 3 μM): C (Percent Degradation: C ≤ 35)
- Dmax: ≤ 35%

Compound: C=CC(=O)N1CCN(c2nc(NCCC(=O)N(C)CCOCCOCCOCCOCCNc3cccc4c3C(=O)N(C3CCC(=O)NC3=O)C4=O)nc3c(F)c(-c4cc(O)cc5ccccc45)c(Cl)cc23)CC1 (stereo not shown) [compound 59, 3-((4-(4-acryloylpiperazin-1-yl)-6-chloro-8-fluoro-7-(3-hydroxynaphthalen-1-yl)quinazolin-2-yl)amino)-N-(14-((2-(2,6-dioxopiperidin-3-yl)-1,3-dioxoisoindolin-4-yl)amino)-3,6,9,12-tetraoxatetradecyl)-N-methylpropanamide]
- Percent Degradation at Indicated Concentration (μM): 0.1 (H2030 cells, 0.1 μM): C (C ≤ 35)
- Percent Degradation at Indicated Concentration (μM): 0.3 (H2030 cells, 0.3 μM): C (C ≤ 35)
- Percent Degradation at Indicated Concentration (μM): 1 (H2030 cells, 1 μM): C (C ≤ 35)
- Dmax (H2030 cells): ≤ 35%
